The subject of test [1] is C9 iPSC MN (ALS patient derived motor neurons). As to the kind of experiment: iPSC MN Survival assay. It counts as cell-based, human. Particulars: for EC50: Homo sapiens, iPSC, 144 h, motor neurons in nutrient deprived media (HBSS), six days, GFP imaging, read-out: C9 iPSC MN Significant survival rescue EC50; for C9 iPSC MN Survival hazard ratio: maximal reduction in hazard ratio vs control (Cox regression), <1.0 indicates increased survival. Here is the method: [The source words this procedure for another variant and reports this variant under the same test.] iPSC MN Survival assay: Fibroblasts from ALS patients with known SOD1 A4V mutation were reprogrammed into inducible pluripotent stem cells (iPSC) and then differentiated to motor neurons. In culture, ALS patient derived motor neurons show increased death rate compared to motor neurons derived from healthy individuals in a stressed condition (nutrient deprived media, Hank's buffered salt solution-HBSS).
Cell rescue was measured following more than two different concentrations of each compound for six days with greater than four replicates in a 96-well format to ensure studies with power >0.8. Cells are transduced with a GFP reporter and imaged once a day to track survival. A broad-spectrum caspase inhibitor served as the positive control.
Microscopy image-based readout: Cells are transduced with a GFP reporter and imaged once a day with a blue laser to track survival. Imagers used include the Biotek Cytation 5 and Thermo Fisher EVOS Auto FL 2. All Images undergo uniform processing consisting of rolling hat background subtraction and contrast adjustment.
Cells are identified by their shape and each cell is tracked across images and time points for each well. Survival is visually assessed from the Kaplan-Meier curves. Survival of the cells is modeled and tested using a mixed effects Cox regression where each well is modeled as the random effect, and the group (control/treatment) as the fixed effect. Hazard ratios between treatment and control are estimated within the Cox regression where a value of 1.0 denotes no change, values >1.0 indicate decreased survival in response to treatment, and values <1.0 indicate increased survival in response to treatment. Data are presented as the maximal reduction in hazard ratio scores measured at various concentrations.

In test [2] the target is Full length human recombinant PIKFYVE (Homo sapiens (Human), UniProt Q9Y2I7). As to the kind of experiment: Inhibition of PIKfyve (microfluidic electrophoresis kinase assay). It counts as biochemical. Particulars: 2 nM enzyme, PI3P/PS substrate, 3 h at room temperature, 12 concentrations. The gist of the method:
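GST-tagged full-length PIKfyve (baculovirus-expressed, 2 nM final) with fluorescent PI3P/PS substrate (1 μM PI3P) and […] in HEPES pH 7.5 with Mg2+/Mn2+, 1% DMSO, 3 h at room temperature; 12 concentrations. PI(3,5)P product and substrate separated by microfluidic electrophoresis; % inhibition from product/sum ratio.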

Test [3] has as its system HEK 293T transfected with plasmids containing TDP-43 Q331K mutation. As to the kind of experiment: HEK/TDP Survival assay (Cell-Titer-Glo). The class given is cell-based. Particulars: Homo sapiens; HEK 293T TDP-43 Q331K, 48 hrs, CTG readout. The method, then:
HEK/TDP Survival assay: Immortalized human embryonic kidney 293T (HEK 293T) were transfected with plasmids containing TDP-43 Q331K mutation, resulting in an increase in cell death that is biologically relevant to ALS patients. Cell death is measured as reductions in the amount of ATP, an indicator of metabolically active cells, that is quantified by a luminescence Cell-Titer-Glo® (CTG) reagent. Compounds are evaluated in this model for changes in CTG compared to no treatment group. Increased signal indicates improved survival (rescue) and decreased signal indicates decreased survival.
Cell rescue was measured in a 96-well format with eight different concentrations of the test compound over 48 hrs with 6 replicates. The Promega Cell-Titer-Glo® Luminescent Cell Viability Assay was used to quantify ATP, an indicator of metabolically active cells (see protocol: https://www.promega.com/-/media/files/resources/protocols/technical-manuals/101/celltiterglo-2-O-assay-protocol.pdf?la=en). The luminescence signal was detected using the PerkinElmer En Vision or Molecular Devices SpectraMax.
The effect of a compound at a given dose on cell viability was determined using a three step procedure. First, Hedge's g for the Cell Titer-Glo luminescence values using six untreated wells on every plate as a control was calculated. […] Finally, values from all compound-dose pairs were corrected for multiple hypothesis testing using the Empirical Bayes framework of Stephens, M. (False discovery rates: a new deal, Biostatistics, 18 [2], 2017, 275-294) yielding credible intervals for the measured effect and associated s values.
Briefly, this method computes a local false sign rate for each experiment. Analogous to the local false discovery rate of Efron, B. (Size, power and false discovery rates, Ann. Statist. 35 [4], 2007, 1351-1377) this value measures the confidence in the sign of each effect (rather than confidence in each effect being non-zero). The s values reported in the previous figures are the expected fraction of errors if estimating the sign of all effects with greater absolute local false sign rate, defined in analogy to the q value of Storey, JD (The positive false discovery rate: a Bayesian interpretation and the q-value, Ann. Statist. 31 [6] 2003, 2013-2035).
Drugs that yielded signed log s values greater than 3 were considered hits. This threshold was determined by a separate calibration experiment in which Cell Titer-Glo® was measured in blank plates consisting of untreated cells to assess the noise inherent in the assay. Data are presented as the maximal effect of rescue obtained from the dose-response curve.

Some results are limits rather than exact numbers.

Full length human recombinant PIKFYVE, sequence (Q9Y2I7 whole entry): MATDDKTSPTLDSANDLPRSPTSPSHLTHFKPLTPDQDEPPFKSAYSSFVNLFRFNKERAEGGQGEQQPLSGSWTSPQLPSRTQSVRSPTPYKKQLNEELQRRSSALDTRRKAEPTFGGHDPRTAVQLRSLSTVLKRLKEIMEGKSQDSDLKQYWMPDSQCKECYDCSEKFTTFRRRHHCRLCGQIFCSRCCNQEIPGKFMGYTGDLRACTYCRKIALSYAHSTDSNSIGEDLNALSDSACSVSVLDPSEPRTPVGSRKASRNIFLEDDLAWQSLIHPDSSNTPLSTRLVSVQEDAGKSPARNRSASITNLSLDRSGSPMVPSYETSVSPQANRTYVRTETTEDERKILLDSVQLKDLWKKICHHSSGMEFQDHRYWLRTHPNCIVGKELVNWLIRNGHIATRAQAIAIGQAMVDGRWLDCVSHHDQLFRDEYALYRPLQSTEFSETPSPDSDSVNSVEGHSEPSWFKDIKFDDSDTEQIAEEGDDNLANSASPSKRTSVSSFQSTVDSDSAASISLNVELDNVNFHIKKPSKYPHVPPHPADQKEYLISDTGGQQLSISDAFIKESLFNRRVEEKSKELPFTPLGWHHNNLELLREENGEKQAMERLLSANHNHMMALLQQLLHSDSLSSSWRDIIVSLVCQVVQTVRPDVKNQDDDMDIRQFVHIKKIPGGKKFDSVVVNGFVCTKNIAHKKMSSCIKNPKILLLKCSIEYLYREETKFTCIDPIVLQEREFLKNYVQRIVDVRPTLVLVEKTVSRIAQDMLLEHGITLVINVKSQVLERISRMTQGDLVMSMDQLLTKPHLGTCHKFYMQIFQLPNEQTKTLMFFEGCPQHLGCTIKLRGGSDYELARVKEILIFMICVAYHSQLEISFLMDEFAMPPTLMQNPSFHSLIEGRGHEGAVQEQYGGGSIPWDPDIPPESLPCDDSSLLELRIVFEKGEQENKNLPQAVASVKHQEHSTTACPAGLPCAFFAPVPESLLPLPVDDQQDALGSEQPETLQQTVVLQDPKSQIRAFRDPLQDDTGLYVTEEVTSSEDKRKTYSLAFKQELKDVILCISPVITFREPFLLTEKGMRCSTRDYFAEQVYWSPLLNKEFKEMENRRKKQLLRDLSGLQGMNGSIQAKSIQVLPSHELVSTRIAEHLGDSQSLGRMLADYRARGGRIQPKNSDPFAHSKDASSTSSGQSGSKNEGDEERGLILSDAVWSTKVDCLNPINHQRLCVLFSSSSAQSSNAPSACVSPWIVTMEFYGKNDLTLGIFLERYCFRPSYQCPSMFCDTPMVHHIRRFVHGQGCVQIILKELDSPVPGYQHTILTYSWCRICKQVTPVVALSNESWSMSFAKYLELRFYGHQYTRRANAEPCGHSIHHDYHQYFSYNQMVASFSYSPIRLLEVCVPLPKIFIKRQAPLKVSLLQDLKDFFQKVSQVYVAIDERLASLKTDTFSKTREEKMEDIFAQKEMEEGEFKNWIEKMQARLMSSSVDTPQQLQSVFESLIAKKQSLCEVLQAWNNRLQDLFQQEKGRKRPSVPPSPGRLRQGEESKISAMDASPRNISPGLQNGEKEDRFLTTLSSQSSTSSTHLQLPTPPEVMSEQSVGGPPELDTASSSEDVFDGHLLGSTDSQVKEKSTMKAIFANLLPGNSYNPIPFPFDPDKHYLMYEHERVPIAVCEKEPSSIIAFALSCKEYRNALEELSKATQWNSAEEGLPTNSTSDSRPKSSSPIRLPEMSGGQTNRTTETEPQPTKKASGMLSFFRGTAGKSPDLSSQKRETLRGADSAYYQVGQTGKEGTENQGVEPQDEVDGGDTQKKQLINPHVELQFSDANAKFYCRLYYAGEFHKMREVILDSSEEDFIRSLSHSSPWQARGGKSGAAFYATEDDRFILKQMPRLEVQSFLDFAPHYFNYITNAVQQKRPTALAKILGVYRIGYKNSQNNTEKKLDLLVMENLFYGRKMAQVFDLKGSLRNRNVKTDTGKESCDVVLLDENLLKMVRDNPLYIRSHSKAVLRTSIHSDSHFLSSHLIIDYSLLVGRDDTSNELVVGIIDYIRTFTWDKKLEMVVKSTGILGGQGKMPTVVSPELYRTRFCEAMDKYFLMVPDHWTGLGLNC

As to `Cc1cccc(-c2ccn(-c3cc(N4CCOCC4)n4nc(-c5cccnc5)cc4n3)n2)c1` [Example 17, 4-(2-(pyridin-3-yl)-5-(3-(m-tolyl)-1H-pyrazol-1-yl)pyrazolo[1,5-a]pyrimidin-7-yl)morpholine], the EC50 (in general, the midpoint of the concentration-response curve) in test [1] was 1000 nM; in test [3], 95 nM. In addition, the “C9 iPSC MN Survival hazard ratio” value in test [1] amounted to 0.82. Besides, the IC50 (in general, the midpoint of a concentration-inhibition curve) in test [2] is 6.8 nM.

As for `Cc1cccc(-c2ccn(-c3cc(N4CCOCC4)n4nc(-c5ccncc5)cc4n3)n2)c1` [Example 14, 4-[5-[3-(m-tolyl)pyrazol-1-yl]-2-(4-pyridyl)pyrazolo[1,5-a]pyrimidin-7-yl]morpholine], in test [1], the concentration giving a half-maximal response (EC50) is greater than 6000 nM and the “C9 iPSC MN Survival hazard ratio” value is 0.94. Further, in test [2], the 50% inhibitory concentration (IC50) turned out to be 4.3 nM. Also, in test [3], it took 144 nM to reach a half-maximal effect (EC50).

With `Cc1cccc(-c2ccn(-c3cc(N4CCOCC4)n4nc(C(=O)NCCCCN(C)C)cc4n3)n2)c1` [Example 41, N-(4-(dimethylamino)butyl)-7-morpholino-5-(3-(m-tolyl)-1H-pyrazol-1-yl)pyrazolo[1,5-a]pyrimidine-2-carboxamide], the IC50 in test [2] amounted to 32.4 nM. For the same compound, the response in test [3] was half-maximal at 67 nM (EC50).

Consider `CONC(=O)c1cc2nc(-n3ccc(-c4cccc(C)c4)n3)cc(N3CCOCC3)n2n1` [Example 34, N-methoxy-7-morpholino-5-(3-(m-tolyl)-1H-pyrazol-1-yl)pyrazolo[1,5-a]pyrimidine-2-carboxamide], for which the “C9 iPSC MN Survival hazard ratio” value in test [1] worked out at 0.82. For the same compound, in test [2], the IC50 turned out to be 65.6 nM.

For `Cc1cccc(-c2ccn(-c3cc(N4CCOCC4)n4nc(C(=O)N[C@@H](C)C5CC5)cc4n3)n2)c1` [Example 22, (S)—N-(1-cyclopropylethyl)-7-morpholino-5-(3-(m-tolyl)-1H-pyrazol-1-yl)pyrazolo[1,5-a]pyrimidine-2-carboxamide], in test [2], the IC50 stood at 12.6 nM. In test [3], this compound showed a concentration giving a half-maximal response (EC50) of 112 nM.

Regarding `Cc1cccc(-c2ccn(-c3cc(N4CCOCC4)n4nc(C(=O)NCC5COC5)cc4n3)n2)c1` [Example 43, 7-morpholino-N-(oxetan-3-ylmethyl)-5-(3-(m-tolyl)-1H-pyrazol-1-yl)pyrazolo[1,5-a]pyrimidine-2-carboxamide], in test [2], the half-inhibitory concentration (IC50) was determined as 46.4 nM. Further, the EC50 in test [3] was found to be 92 nM.

As to `Cc1cccc(-c2ccn(-c3cc(N4CCOCC4)n4nc(-c5ccccn5)cc4n3)n2)c1` [Example 18, 4-(2-(pyridin-2-yl)-5-(3-(m-tolyl)-1H-pyrazol-1-yl)pyrazolo[1,5-a]pyrimidin-7-yl)morpholine], the EC50 in test [1] was 1000 nM; in test [3], 105 nM. Also, the half-maximal inhibitory concentration (IC50) in test [2] was determined as 29.6 nM.

For `Cc1cccc(-c2ccn(-c3cc(N4CCOCC4)n4nc(C(=O)NC5CC5)cc4n3)n2)c1` [Example 20, N-cyclopropyl-7-morpholino-5-(3-(m-tolyl)-1H-pyrazol-1-yl)pyrazolo[1,5-a]pyrimidine-2-carboxamide], the “C9 iPSC MN Survival hazard ratio” value in test [1] stood at 0.85. In addition, the 50% inhibitory concentration (IC50) in test [2] stood at 30.2 nM. Besides, in test [3], the response was half-maximal at 103 nM (EC50).
